Data from article PMC9578396, “Intrinsic Antibacterial Activity of Xeruborbactam In Vitro: Assessing Spectrum and Mode of Action” (Antimicrobial Agents and Chemotherapy, 2022).
“And” between values parts separate entries of the source, which are not always exact repeats. Equal entries are not always repeated. Where two headings read alike, the source gives them in different places.

Assays:
Type in all cases: cell-based
[1] = tested on: Klebsiella pneumoniae; test: microbe, parasite or virus in culture; settings: for MIC: Klebsiella pneumoniae
In short: (§1)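 MICs by CLSI broth microdilution in in-house panels. Strains tested were engineered strains carrying porin and efflux mutation combinations, KPC-producing clinical isolates and derivatives cured of KPC plasmids, and KPC-producing clinical isolates enriched for porin mutations.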

[2] = tested on: Escherichia coli; test: Broth microdilution MIC (CLSI), Escherichia coli
In short: as §1

[3] = tested on: Pseudomonas aeruginosa; test: Broth microdilution MIC (CLSI), Pseudomonas aeruginosa; settings: for MIC50 / MIC90 / MIC: Pseudomonas aeruginosa; for MIC50 / MIC90: 506 isolates
In short: as §1

## O=C(O)c1c(F)ccc2c1OB(O)[C@@H]1C[C@H]21 [Xeruborbactam]
[1]; strain KPM2613, ΔompK35 ompK36_2040
  MIC: 32 µg/mL
[1]; strain KPM2696, ΔacrB
  MIC: 16 µg/mL
[1]; OmpK35 full-length (n=118)
  percentage of strains with xeruborbactam MIC values ≥32 µg/ml: 31.4%
[1]; OmpK35 full-length, OmpK36 GD (n=11)
  percentage of strains with xeruborbactam MIC values ≥32 µg/ml: 82%
[1]; OmpK35 full-length, OmpK36 full length (n=82)
  percentage of strains with xeruborbactam MIC values ≥32 µg/ml: 6.1%
[1]; OmpK35 full-length, OmpK36 non-functional (n=25)
  percentage of strains with xeruborbactam MIC values ≥32 µg/ml: 92%
[1]; OmpK35 non-functional (n=318)
  percentage of strains with xeruborbactam MIC values ≥32 µg/ml: 49%
[1]; OmpK35 non-functional, OmpK36 GD (n=149)
  percentage of strains with xeruborbactam MIC values ≥32 µg/ml: 74.5%
[1]; OmpK35 non-functional, OmpK36 full length (n=130)
  percentage of strains with xeruborbactam MIC values ≥32 µg/ml: 3.4%
[1]; OmpK35 non-functional, OmpK36 non-functional (n=39)
  percentage of strains with xeruborbactam MIC values ≥32 µg/ml: 95%
[1]; OmpK36 GD (n=160)
  percentage of strains with xeruborbactam MIC values ≥32 µg/ml: 75%
[1]; OmpK36 non-functional (n=65)
  percentage of strains with xeruborbactam MIC values ≥32 µg/ml: 92.3% and 92%
[1]; inactivation of ompK36 alone or in combination with ompK35
  fold MIC increase: 2 fold and 2- to 4 fold
[1]; strain KPM1171 vs wild type
  fold MIC increase: 4 fold
[2]; EC1078, PBP2 same as MG1655, PBP3 I332V
  MIC: 32
[2]; EC1081, PBP2 same as MG1655, PBP3 Q227H
  MIC: 8
[2]; EC1085, PBP2 T331P, PBP3 A233T I332V
  MIC: 8
[2]; EC1088, PBP2 A308G, PBP3 same as MG1655
  MIC: 8
[2]; EC1097, PBP2 M574I, PBP3 Q227H
  MIC: 8
[2]; EC1098, PBP2 V217M, PBP3 YRIN ins, I532L
  MIC: 8
[2]; EC1103, PBP2 same as MG1655, PBP3 YRIN ins, Q227H, E349K, I532L
  MIC: 8
[2]; EC1105, PBP2 A543T, PBP3 YRIN ins, Q227H, E349K, I532L
  MIC: 8
[2]; EC1119, PBP2 same as MG1655, PBP3 YRIN ins, Q227H, E349K, I532L
  MIC: 32
[2]; EC1121, PBP2 V217M, PBP3 YRIN ins, E349K, I532L
  MIC: 8
[2]; Escherichia coli, 334 isolates
  MIC50: 8 µg/mL
  MIC90: 16 µg/mL
  MIC range: 2 to 32 µg/mL
[2]; Escherichia coli, Escherichia coli isolates, read-out: highest MIC observed
  MIC: 32 µg/mL
[2]; Escherichia coli, MG1655, Escherichia coli ECM5497 (MG1655), read-out: MIC
  MIC: 72 µM and 16 µg/mL
[2]; Escherichia coli, clinical isolate EC1078, OmpK35 NF, OmpK36 NF, read-out: MIC
  MIC: 32 µg/mL
[2]; Escherichia coli, clinical isolate EC1081, OmpK35 FN, OmpK36 FN, read-out: MIC
  MIC: 8 µg/mL
[2]; Escherichia coli, clinical isolate EC1085, OmpK35 FN, OmpK36 FN, read-out: MIC
  MIC: 8 µg/mL
[2]; Escherichia coli, clinical isolate EC1088, OmpK35 FN, OmpK36 FN, read-out: MIC
  MIC: 8 µg/mL
[2]; Escherichia coli, clinical isolate EC1097, OmpK35 FN, OmpK36 FN, read-out: MIC
  MIC: 8 µg/mL
[2]; Escherichia coli, clinical isolate EC1098, OmpK35 NF, OmpK36 FN, read-out: MIC
  MIC: 8 µg/mL
[2]; Escherichia coli, clinical isolate EC1119, OmpK35 NF, OmpK36 NF, read-out: MIC
  MIC: 32 µg/mL
[2]; Escherichia coli, clinical isolate EC1121, OmpK35 NF, OmpK36 FN, read-out: MIC
  MIC: 8 µg/mL
[2]; Escherichia coli, strain ECM5497, wild type, read-out: MIC
  MIC: 8 µg/mL
[2]; Escherichia coli, strain ECM6001, ΔacrB
  MIC: 8 µg/mL
[2]; Escherichia coli, strain ECM6502, marR (AcrAB overexpression)
  MIC: 8 µg/mL
[2]; Escherichia coli, strain ECM5497, read-out: MIC
  MIC: 8 µg/mL
[3]; 506 P. aeruginosa clinical isolates
  isolates with MICs of ≥64 μg/mL: 94%
[3]
  MIC50: >64 µg/mL
  MIC90: >64 µg/mL
[3]; read-out: MIC50
  MIC50: > 64 µg/mL
[3]; read-out: MIC90
  MIC90: > 64 µg/mL
[3]; PAM1154 (oprM::Hg), xeruborbactam 0 µg/ml
  MIC: 16 µg/mL
[3]; PAO1, Pseudomonas aeruginosa PAM3034 (PAO1), read-out: MIC
  MIC: 16 µg/mL and 72 µM
[3]; after inactivation of MexAB-OprM, read-out: MIC
  MIC: 16 µg/mL
[3]; before inactivation of MexAB-OprM (wild type), read-out: MIC
  MIC: 256 µg/mL
[3]; strain 1089003, alone, read-out: MIC
  MIC: 16 µg/mL
[3]; strain 1097436, alone, read-out: MIC
  MIC: 8 µg/mL
[3]; strain 1098084, alone, read-out: MIC
  MIC: 16 µg/mL
[3]; strain 1098916, alone, read-out: MIC
  MIC: 32 µg/mL
[3]; strain 1100407, alone, read-out: MIC
  MIC: 32 µg/mL
[3]; strain 1104100, alone, read-out: MIC
  MIC: 16 µg/mL
[3]; strain 1104168, alone, read-out: MIC
  MIC: 32 µg/mL
[3]; strain 1104284, alone, read-out: MIC
  MIC: 8 µg/mL
[3]; strain 1106973, alone, read-out: MIC
  MIC: 16 µg/mL
[3]; strain 1108885, alone, read-out: MIC
  MIC: 16 µg/mL
[3]; strain 1109744, alone, read-out: MIC
  MIC: 16 µg/mL
[3]; strain 1113238, alone, read-out: MIC
  MIC: 8 µg/mL
[3]; strain 1113634, alone, read-out: MIC
  MIC: 8 µg/mL
[3]; strain 1114012, alone, read-out: MIC
  MIC: 8 µg/mL
[3]; strain 1116835, alone, read-out: MIC
  MIC: 8 µg/mL
[3]; strain 1116849, alone, read-out: MIC
  MIC: 16 µg/mL
[3]; strain 1118234, alone, read-out: MIC
  MIC: 16 µg/mL
[3]; strain 1119418, alone, read-out: MIC
  MIC: 8 µg/mL
[3]; strain 1124145, alone, read-out: MIC
  MIC: 16 µg/mL
[3]; strain 1125954, alone, read-out: MIC
  MIC: 32 µg/mL
[3]; strain 1125996, alone, read-out: MIC
  MIC: 32 µg/mL
[3]; strain 1126521, alone, read-out: MIC
  MIC: 8 µg/mL
[3]; strain 1126957, alone, read-out: MIC
  MIC: 8 µg/mL
[3]; strain 1126982, alone, read-out: MIC
  MIC: 32 µg/mL
[3]; strain 1128636, alone, read-out: MIC
  MIC: 32 µg/mL
[3]; strain 1128674, alone, read-out: MIC
  MIC: 16 µg/mL
[3]; strain 1130387, alone, read-out: MIC
  MIC: 16 µg/mL
[3]; strain 1130447, alone, read-out: MIC
  MIC: 16 µg/mL
[3]; strain 1130475, alone, read-out: MIC
  MIC: 16 µg/mL
[3]; strain 1131123, alone, read-out: MIC
  MIC: 8 µg/mL
[3]; strain PAM1020, wild type, read-out: MIC
  MIC: 256 µg/mL
[3]; strain PAM1032, nalB (MexAB-OprM overexpression)
  MIC: > 256 µg/mL
[3]; strain PAM1033, nfxB (MexCD-OprJ overexpression)
  MIC: 128 µg/mL
[3]; strain PAM1034, nfxC (MexEF-OprN overexpression)
  MIC: 256 µg/mL
[3]; strain PAM1106, mexA::Tet
  MIC: 16 µg/mL
[3]; strain PAM1154 (Fig. 6), read-out: MIC
  MIC: 32 µg/mL
[3]; strain PAM1154, oprM::Hg
  MIC: 16 µg/mL
[3]; strain PAM1154, read-out: MIC
  MIC: 16 µg/mL
[3]; inactivation of MexAB-OprM
  fold reduction of MIC: 16 fold
[3]; mexCD-oprJ-overexpressing strain PAM1033
  fold MIC decrease: 2 fold
